System: NCI-H211 complex spheroid viability
Experiment: Anticancer human tumor NCI-H211 cell line growth inhibition [LSD1];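 further: luminescent viability read after seven days of drug exposure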;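 on viability, T/C: 100% = DMSO vehicle control viability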
Conditions: for IC50: curve of first compound; for viability, T/C: stronger effect = lower value; active means viability on the fitted dose curve at most 10% of control; inactive means the rest
Outline: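 Drug combinations with the LSD1 inhibitor iadademstat tested on tumor cells co-cultured as spheroids with endothelial cells and mesenchymal stem cells. Concentrations descended in half-log increments from clinical Cmax or 10 microM.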

COc1cc(C2c3cc4c(cc3C(OC3OC5COC(C)OC5C(O)C3O)C3COC(=O)C23)OCO4)cc(OC)c1O (stereo not given) + NC1CCC(NC2CC2c2ccccc2)CC1
active: viability, T/C (second compound 0.1 µM, first compound 0.0949 µM) 2.21% | viability, T/C (second compound 0.1 µM, first compound 0.3 µM) 5.34% | viability, T/C (second compound 0.1 µM, first compound 0.949 µM) 1.9% | viability, T/C (second compound 0.1 µM, first compound 3 µM) 2.19% | viability, T/C (second compound 0.316 µM, first compound 0.0949 µM) 1.66% | viability, T/C (second compound 0.316 µM, first compound 0.3 µM) 2.34% | viability, T/C (second compound 0.316 µM, first compound 0.949 µM) 2.35% | viability, T/C (second compound 0.316 µM, first compound 3 µM) 2.14% | viability, T/C (second compound 1 µM, first compound 0.0949 µM) 2.2% | viability, T/C (second compound 1 µM, first compound 0.3 µM) 2.36% | viability, T/C (second compound 1 µM, first compound 0.949 µM) 2.33% | viability, T/C (second compound 1 µM, first compound 3 µM) 2.08% | viability, T/C (second compound 3.16 µM, first compound 0.0949 µM) 2.02% | viability, T/C (second compound 3.16 µM, first compound 0.3 µM) 2.37% | viability, T/C (second compound 3.16 µM, first compound 0.949 µM) 1.62% | viability, T/C (second compound 3.16 µM, first compound 3 µM) 1.85% | viability, T/C (second compound 10 µM, first compound 0.03 µM) 4.24% | viability, T/C (second compound 10 µM, first compound 0.0949 µM) 0.87% | viability, T/C (second compound 10 µM, first compound 0.3 µM) 0.66% | viability, T/C (second compound 10 µM, first compound 0.949 µM) 0.79% | viability, T/C (second compound 10 µM, first compound 3 µM) 0.69%
inactive: viability, T/C (second compound 0.1 µM, first compound 0.00949 µM) 51.4% | viability, T/C (second compound 0.1 µM, first compound 0.03 µM) 14.5% | viability, T/C (second compound 0.316 µM, first compound 0.00949 µM) 51.7% | viability, T/C (second compound 0.316 µM, first compound 0.03 µM) 12.7% | viability, T/C (second compound 1 µM, first compound 0.00949 µM) 46.1% | viability, T/C (second compound 1 µM, first compound 0.03 µM) 11.6% | viability, T/C (second compound 3.16 µM, first compound 0.00949 µM) 42.2% | viability, T/C (second compound 3.16 µM, first compound 0.03 µM) 10.5% | viability, T/C (second compound 10 µM, first compound 0.00949 µM) 18.9%
9.92 nM: IC50 (second compound 0.316 µM)
< 9.49 nM: IC50 (second compound 1 µM) | IC50 (second compound 3.16 µM) | IC50 (second compound 10 µM)
9.89 nM: IC50 (second compound 0.1 µM)

Nc1ncn(C2CC(O)C(CO)O2)c(=O)n1 (stereo not given) + NC1CCC(NC2CC2c2ccccc2)CC1
active: viability, T/C (second compound 0.1 µM, first compound 0.0316 µM) 7.44% | viability, T/C (second compound 0.1 µM, first compound 0.1 µM) 3.11% | viability, T/C (second compound 0.1 µM, first compound 0.316 µM) 1.96% | viability, T/C (second compound 0.1 µM, first compound 1 µM) 1.81% | viability, T/C (second compound 0.316 µM, first compound 0.0316 µM) 9.7% | viability, T/C (second compound 0.316 µM, first compound 0.1 µM) 2.44% | viability, T/C (second compound 0.316 µM, first compound 0.316 µM) 1.9% | viability, T/C (second compound 0.316 µM, first compound 1 µM) 1.78% | viability, T/C (second compound 1 µM, first compound 0.0316 µM) 7.52% | viability, T/C (second compound 1 µM, first compound 0.1 µM) 3.4% | viability, T/C (second compound 1 µM, first compound 0.316 µM) 1.88% | viability, T/C (second compound 1 µM, first compound 1 µM) 1.32% | viability, T/C (second compound 3.16 µM, first compound 0.0316 µM) 6.93% | viability, T/C (second compound 3.16 µM, first compound 0.1 µM) 2.47% | viability, T/C (second compound 3.16 µM, first compound 0.316 µM) 1.82% | viability, T/C (second compound 3.16 µM, first compound 1 µM) 1.39% | viability, T/C (second compound 10 µM, first compound 0.01 µM) 5.2% | viability, T/C (second compound 10 µM, first compound 0.0316 µM) 2.56% | viability, T/C (second compound 10 µM, first compound 0.1 µM) 0.89% | viability, T/C (second compound 10 µM, first compound 0.316 µM) 0.77% | viability, T/C (second compound 10 µM, first compound 1 µM) 0.61%
< 3.16 nM: IC50 (second compound 0.1 µM) | IC50 (second compound 0.316 µM) | IC50 (second compound 1 µM) | IC50 (second compound 3.16 µM) | IC50 (second compound 10 µM)
inactive: viability, T/C (second compound 0.1 µM, first compound 0.00316 µM) 26.7% | viability, T/C (second compound 0.1 µM, first compound 0.01 µM) 17.8% | viability, T/C (second compound 0.316 µM, first compound 0.00316 µM) 35% | viability, T/C (second compound 0.316 µM, first compound 0.01 µM) 16% | viability, T/C (second compound 1 µM, first compound 0.00316 µM) 33% | viability, T/C (second compound 1 µM, first compound 0.01 µM) 16.2% | viability, T/C (second compound 3.16 µM, first compound 0.00316 µM) 29.3% | viability, T/C (second compound 3.16 µM, first compound 0.01 µM) 17.8% | viability, T/C (second compound 10 µM, first compound 0.00316 µM) 11.7%

From PubChem BioAssay AID1918940 (Molecular Pharmacology Branch, DTP, NCI, 2023)
